Source: patent publication US10946019B2, “Nurr1:RXR activating compounds for simultaneous treatment of symptoms and pathology of Parkinson's disease” (priority 2015, dated 2021)

How the values were obtained:
[1] = molecular target: Nur77GAL4:RXRαVP16 heterodimers (Homo sapiens (Human), UniProt P19793); test: GAL4/VP16 chimera specificity luciferase assay in SHSY-5Y; format: cell-based; settings: GAL4-responsive luciferase reporter
Excerpt: To test off-target effects of compound 3 on complexes aside from Nurr1:RXRα heterodimers, we fused the ligand binding domains of Nurr1, RXRα and a variety of related nuclear receptors to GAL4 DNA-binding domain to create chimeric proteins, while the ligand-binding domain of RXRα was also fused with VP16. These molecular chimeras were co-transfected in pairs with the RXRα:VP16 along with a GAL4-responsive luciferase reporter in SHSY-5Y, which were stimulated with compound 3. […] The above experiments indicate the high degree of selectivity of compound 3 and point to its neuroprotective potential.

[2] = system: C57BL/6 mice injected unilaterally with 6-OHDA; test: Neuroprotection in the unilateral 6-OHDA mouse model; settings: for reduction of apomorphine induced contralateral turns: 10 mg/kg IP every 12 hours
GCH1 = test: Expression of DA biosynthesis genes in SHSY-5Y by qPCR; format: cell-based, human; settings: 12.5 μM, vs vehicle
Excerpt: (§1) FIGS. 72A-72R show the ability of compound 3 to induce the expression of genes involved in dopamine biosynthesis as well as the neuroprotective effects of compound 3 in cell lines and patient iPCs-derived dopaminergic neurons. […] FIGS. 72F, 72G, 72H, and 72I show representative confocal microscopy images of the compound 3-treated primary rat cortical neurons. […] FIG. 72M-72R show the effects of compound 3 on PD patient iPS cell-derived dopaminergic neurons with the LRRK2-G2019S mutation or corrected mutation (GC). Compound 3 treatment rescues neurite length (M, expressed in […]), number (N) and branching (O) phenotypes. Representative images show staining with TuJ, TH and DAPI (FIGS. 72P, 72Q, and 72R).
(§2) Nurr1 regulates the transcription of DA biosynthesis genes (Kim et al. J. Neurochem. 85:622-634, 2003 and Gil et al. J Neurochem 101:142-150, 2007); however, whether this process is mediated by Nurr1:RXRα heterodimers is unknown.

TH = test: as above; format: cell-based, human; settings: 12.5 μM, vs vehicle
Excerpt: as §1, §2

[3] = system: aromatic L-amino acid decarboxylase (AADC); test: as above; format: cell-based, human; settings: 12.5 μM, vs vehicle
Excerpt: as §1, §2

AAV-ASYN injected mice = test: Neuroprotection in the AAV-ASYN mouse model; format: in vivo; settings: 10 mg/kg every 12 h for 2 weeks, vs vehicle
Protocol: Because the predictive validity of toxin-based mouse PD models for neuroprotection in humans is questionable, we proceeded to test the effect of compound 3 in a mouse model, where AAV viruses overexpressing wt alpha-synuclein (AAV-ASYN) under the chicken beta-actin promoter were unilaterally injected, combined with contralateral injections of (AAV-GFP). The same compound 3 (10 mg/kg every 12 h for 2 weeks) or vehicle treatment regimen was followed as in the toxin models.

[4] = system: wild type 129/SV mice treated with MPTP; test: Neuroprotection against MPTP in wild type 129/SV mice; format: in vivo, mouse
Protocol: 20 mg/kg MPTP injections were administered 4 times at the zero day of treatment, spaced 2 hours apart. 7 days after the MPTP injections there was approximately an 80% reduction in striatal projections and 40%-50% dopaminergic neuron death in the SN.

[5] = Plasma and brain concentrations by LC-MS/MS after IP administration to mice; format: in vivo, mouse; settings: mouse, in vivo, ip
Protocol: FIGS. 68A and 68B show the pharmacokinetic profile of XCT in blood plasma and in the brain of mice injected with this compound. […] Serial tail bleeds (n=3) were used for detection of the compound in plasma 1 and 2 hours after IP administration. Similarly, mice (n=3) were sacrificed 1 and 2 hours after IP administration and brains were dissected. The concentrations of the parent compound in plasma and brain were determined by LC-MS/MS.
The concentrations of the parent compound in plasma and brain were determined by LC/MSMS.
XCT0135908 was administered to mice to test its bioactivity.

[6] = system: C57BL/6 mice exposed to MPTP; test: Neuroprotection in the acute MPTP mouse model; format: in vivo
striatal DA levels = test: Striatal dopamine and metabolite levels by HPLC-ECD in wild type mice; format: in vivo, mouse
Protocol: 4 hours after dosing, animals were killed by cervical dislocation, brains were removed, and the striata were dissected on ice. The samples were immediately frozen and stored at −80° C. until use. The tissues were processed for the analysis by high performance liquid chromatography (HPLC) with an electrochemical detector (ECD) (Emmanouil et al., 2006). The dissected tissues were weighed, homogenized, and deproteinized in 0.2N perchloric acid solution containing 7.9 mM Na2S2O5 and 1.3 mM Na2EDTA. The homogenate was centrifuged at 37,000×g for 30 minutes, and the supernatant was stored at −80° C. until assayed. A reverse-phase ion-pair chromatography was used in all analyses, and the mobile phase consisted of an acetonitrile-50 mM phosphate buffer at pH 3.0, containing 5-octylsulfate sodium salt (300 mg/L) as the ion-pair reagent and (20 mg/L) Na2EDTA. Reference standards were prepared in 0.2 N perchloric acid solution containing 7.9 mM Na2S2O5 and 1.3 mM Na2EDTA. Samples were quantified by comparison of the areas under the peaks with those of reference standards using HPLC software (Chromatography Station for Windows™, Watrex International Inc., San Francisco, Calif.). […]

Chain of Nur77GAL4:RXRαVP16 heterodimers (P19793 whole entry, looked up, the tested form may be a part): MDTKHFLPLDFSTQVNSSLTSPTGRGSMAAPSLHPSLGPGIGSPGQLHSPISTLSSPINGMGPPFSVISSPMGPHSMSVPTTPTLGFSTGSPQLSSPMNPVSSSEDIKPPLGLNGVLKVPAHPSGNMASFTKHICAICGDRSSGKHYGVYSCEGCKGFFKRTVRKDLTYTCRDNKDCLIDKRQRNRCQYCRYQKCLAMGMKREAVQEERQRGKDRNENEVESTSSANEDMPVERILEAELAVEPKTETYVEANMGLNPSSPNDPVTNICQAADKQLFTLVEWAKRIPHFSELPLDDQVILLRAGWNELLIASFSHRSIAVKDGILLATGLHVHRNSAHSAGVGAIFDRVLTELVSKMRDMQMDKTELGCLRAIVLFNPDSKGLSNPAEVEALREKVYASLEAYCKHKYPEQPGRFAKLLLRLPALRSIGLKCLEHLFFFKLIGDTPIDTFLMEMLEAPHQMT
Chain of Nur77GAL4:RXRαVP16 heterodimers (P22736 whole entry partner, looked up, the tested form may be a part): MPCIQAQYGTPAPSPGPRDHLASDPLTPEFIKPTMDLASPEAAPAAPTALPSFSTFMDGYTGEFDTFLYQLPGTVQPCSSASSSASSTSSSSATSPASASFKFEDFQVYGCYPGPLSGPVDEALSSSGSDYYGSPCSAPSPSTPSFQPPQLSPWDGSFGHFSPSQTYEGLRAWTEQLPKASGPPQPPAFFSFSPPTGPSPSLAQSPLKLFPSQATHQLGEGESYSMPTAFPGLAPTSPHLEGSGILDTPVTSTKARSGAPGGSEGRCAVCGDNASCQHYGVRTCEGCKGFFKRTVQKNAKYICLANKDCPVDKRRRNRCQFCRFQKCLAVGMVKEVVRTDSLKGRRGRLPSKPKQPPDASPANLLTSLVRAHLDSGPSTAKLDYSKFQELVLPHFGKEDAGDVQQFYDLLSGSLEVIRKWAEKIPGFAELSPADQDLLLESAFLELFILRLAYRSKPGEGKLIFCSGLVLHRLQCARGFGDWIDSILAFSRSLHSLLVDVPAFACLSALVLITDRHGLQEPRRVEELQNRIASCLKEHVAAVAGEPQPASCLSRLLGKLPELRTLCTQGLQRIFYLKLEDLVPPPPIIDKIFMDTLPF

C=CCc1c(N(C)c2ccc(C(=O)O)cc2)nc(-c2ccccc2)nc1C(F)(F)F [Example 3, 4-((5-allyl-2-phenyl-6-(trifluoromethyl)pyrimidin-4-yl)(methyl)amino)benzoic acid]
activation of Nur77GAL4:RXRαVP16 heterodimers [1]: partially activated | motor coordination (rotarod test) ([2]; 6-OHDA, 10 mg/kg IP every 12 hours for 14 days): almost entirely restored to control levels | reduction of apomorphine induced contralateral turns ([2]; 6-OHDA, vs vehicle, listed as Compound 3): approximately 8 fold | reduction of apomorphine induced contralateral turns ([2]; 6-OHDA, vs vehicle, listed as compound 3): over 8 fold | increase in number of surviving neuronal bodies (SNpc) ([2]; 6-OHDA, IP 10 mg/kg every 12 hours for 15 days): 256.55% | preservation of striatal TH(+) DAergic projections (innervation) ([2]; 6-OHDA, vs vehicle): 10 fold | Rotarod test improvement ([2]; unilateral 6-OHDA, compound 3 vs vehicle (n=5)): 12 fold | increase of GCH1 expression (GCH1): about 42% | increase of TH expression (TH): about 90% | increase of AADC expression [3]: about 70% | number of NeuN(+) midbrain neurons (AAV-ASYN injected mice): increased | increase of TH(+) midbrain neurons (AAV-ASYN injected mice; listed as Compound 3): 48% | increase of TH(+) midbrain neurons (AAV-ASYN injected mice; listed as compound 3): about 47% | neuroprotection against MPTP toxicity ([4]; 129sv wt mice): equally effective | increase in number of surviving neuronal bodies ([4]; wild type 129/SV, MPTP, IP 10 mg/kg every 12 hours for 8 days): 33.5% | brain penetration [5]: reaching the brain | half-life ([5]; 1 mg/kg): ~2 h | remaining SN axonal terminals in the striatum ([6]; 10 mg/kg IP every 12 hours): doubling | increase of TH(+) midbrain neuron survival ([6]; 10 mg/kg IP every 12 hours for 6 days, stereology): 31% | improvement of motor coordination (accelerating rotarod) ([6]; 10 mg/kg IP every 12 hours for 6 days, vs vehicle): > 100% | neuroprotection with once-a-day injection regimen ([6]; 20 mg/kg once a day): ineffective | increase in number of surviving neuronal bodies (SNpc) ([6]; C57/BL6, IP 10 mg/kg every 12 hours for 8 days): 33.5% | increase of striatal DA levels and dopamine metabolite (DOPAC and HVA) levels (striatal DA levels; wild type C57/BL6 mice, single IP 20 mg/kg, 4 hours after dosing): 33% | striatal DA and DA metabolite levels (striatal DA levels; wt mice, single IP 10 mg/kg, 4 hours): increased
